From ChEMBL document CHEMBL4138146, “A Schmidt rearrangement-mediated synthesis of novel tetrahydro-benzo[1,4]diazepin-5-ones as potential anticancer and antiprotozoal agents” (Eur J Med Chem, 2017)

Tests used:
Type in all cases: functional
NCI-H23 [1] = test: Growth inhibition of human NCI-H23 cells assessed as cell growth at 10^-8 M incubated for 48 hrs by sulforhodamine B assay relative to control; conditions: NCI-H23, 48 h, read-out: Activity
NCI-H460 = test: Growth inhibition of human NCI-H460 cells assessed as cell growth at 10^-8 M incubated for 48 hrs by sulforhodamine B assay relative to control; conditions: NCI-H460, 48 h, read-out: Activity
COLO 205 [2] = test: Growth inhibition of human COLO205 cells assessed as cell growth at 10^-8 M incubated for 48 hrs by sulforhodamine B assay relative to control; conditions: COLO 205, 48 h, read-out: Activity
HCT-116 = test: Growth inhibition of human HCT116 cells assessed as cell growth at 10^-8 M incubated for 48 hrs by sulforhodamine B assay relative to control; conditions: HCT-116, 48 h, read-out: Activity
HT-29 [3] = test: Growth inhibition of human HT-29 cells assessed as cell growth at 10^-8 M incubated for 48 hrs by sulforhodamine B assay relative to control; conditions: HT-29, 48 h, read-out: Activity
LOX IMVI = test: Growth inhibition of human LOXIMVI cells assessed as cell growth at 10^-8 M incubated for 48 hrs by sulforhodamine B assay relative to control; conditions: read-out: Activity
Hs-578T [4] = test: Growth inhibition of human Hs 578T cells assessed as cell growth at 10^-8 M incubated for 48 hrs by sulforhodamine B assay relative to control; conditions: read-out: Activity
HOP-62 [5] = test: Growth inhibition of human HOP62 cells assessed as cell growth at 10^-7 M incubated for 48 hrs by sulforhodamine B assay relative to control; conditions: HOP-62, 48 h, read-out: Activity
NCI-H522 = test: Growth inhibition of human NCI-H522 cells assessed as cell growth at 10^-7 M incubated for 48 hrs by sulforhodamine B assay relative to control; conditions: NCI-H522, 48 h, read-out: Activity
HT-29 [6] = test: Growth inhibition of human HT-29 cells assessed as cell growth at 10^-7 M incubated for 48 hrs by sulforhodamine B assay relative to control; conditions: HT-29, 48 h, read-out: Activity
DU-145 [7] = test: Growth inhibition of human DU145 cells assessed as cell growth at 10^-7 M incubated for 48 hrs by sulforhodamine B assay relative to control; conditions: DU-145, 48 h, read-out: Activity
MCF7 [8] = test: Growth inhibition of human MCF7 cells assessed as cell growth at 10^-7 M incubated for 48 hrs by sulforhodamine B assay relative to control; conditions: MCF7, 48 h, read-out: Activity
Hs-578T [9] = test: Growth inhibition of human Hs 578T cells assessed as cell growth at 10^-7 M incubated for 48 hrs by sulforhodamine B assay relative to control; conditions: read-out: Activity
BT-549 = test: Growth inhibition of human BT549 cells assessed as cell growth at 10^-7 M incubated for 48 hrs by sulforhodamine B assay relative to control; conditions: BT-549, 48 h, read-out: Activity
RPMI-8226 = test: Growth inhibition of human RPMI8226 cells assessed as cell growth at 10^-6 M incubated for 48 hrs by sulforhodamine B assay relative to control; conditions: RPMI-8226, 48 h, read-out: Activity
NCI-H23 [10] = test: Growth inhibition of human NCI-H23 cells assessed as cell growth at 10^-6 M incubated for 48 hrs by sulforhodamine B assay relative to control; conditions: NCI-H23, 48 h, read-out: Activity
HCC 2998 = test: Growth inhibition of human HCC2998 cells assessed as cell growth at 10^-6 M incubated for 48 hrs by sulforhodamine B assay relative to control; conditions: HCC 2998, 48 h, read-out: Activity
SF-268 = test: Growth inhibition of human SF268 cells assessed as cell growth at 10^-6 M incubated for 48 hrs by sulforhodamine B assay relative to control; conditions: SF-268, 48 h, read-out: Activity
OVCAR-4 = test: Growth inhibition of human OVCAR4 cells assessed as cell growth at 10^-6 M incubated for 48 hrs by sulforhodamine B assay relative to control; conditions: OVCAR-4, 48 h, read-out: Activity
A498 = test: Growth inhibition of human A498 cells assessed as cell growth at 10^-6 M incubated for 48 hrs by sulforhodamine B assay relative to control; conditions: A498, 48 h, read-out: Activity
DU-145 [11] = test: Growth inhibition of human DU145 cells assessed as cell growth at 10^-6 M incubated for 48 hrs by sulforhodamine B assay relative to control; conditions: DU-145, 48 h, read-out: Activity
MCF7 [12] = test: Growth inhibition of human MCF7 cells assessed as cell growth at 10^-6 M incubated for 48 hrs by sulforhodamine B assay relative to control; conditions: MCF7, 48 h, read-out: Activity
T47D = test: Growth inhibition of human T47D cells assessed as cell growth at 10^-6 M incubated for 48 hrs by sulforhodamine B assay relative to control; conditions: read-out: Activity
A549 = test: Growth inhibition of human A549/ATCC cells assessed as cell growth at 10^-5 M incubated for 48 hrs by sulforhodamine B assay relative to control; conditions: A549, 48 h, read-out: Activity
HOP-62 [13] = test: Growth inhibition of human HOP62 cells assessed as cell growth at 10^-5 M incubated for 48 hrs by sulforhodamine B assay relative to control; conditions: HOP-62, 48 h, read-out: Activity
COLO 205 [14] = test: Growth inhibition of human COLO205 cells assessed as cell growth at 10^-5 M incubated for 48 hrs by sulforhodamine B assay relative to control; conditions: COLO 205, 48 h, read-out: Activity
SW-620 = test: Growth inhibition of human SW620 cells assessed as cell growth at 10^-5 M incubated for 48 hrs by sulforhodamine B assay relative to control; conditions: SW-620, 48 h, read-out: Activity
M14 = test: Growth inhibition of human M14 cells assessed as cell growth at 10^-5 M incubated for 48 hrs by sulforhodamine B assay relative to control; conditions: M14, 48 h, read-out: Activity
NCI/ADR-RES = test: Growth inhibition of human NCI/ADR-RES cells assessed as cell growth at 10^-5 M incubated for 48 hrs by sulforhodamine B assay relative to control; conditions: read-out: Activity
HOP-92 = test: Growth inhibition of human HOP92 cells assessed as cell growth at 10^-4 M incubated for 48 hrs by sulforhodamine B assay relative to control; conditions: HOP-92, 48 h, read-out: Activity
SF-539 = test: Growth inhibition of human SF539 cells assessed as cell growth at 10^-4 M incubated for 48 hrs by sulforhodamine B assay relative to control; conditions: SF-539, 48 h, read-out: Activity
SK-MEL-5 = test: Growth inhibition of human SK-MEL-5 cells assessed as cell growth at 10^-4 M incubated for 48 hrs by sulforhodamine B assay relative to control; conditions: SK-MEL-5, 48 h, read-out: Activity
UACC-257 = test: Growth inhibition of human UACC257 cells assessed as cell growth at 10^-4 M incubated for 48 hrs by sulforhodamine B assay relative to control; conditions: UACC-257, 48 h, read-out: Activity
OVCAR-8 = test: Growth inhibition of human OVCAR8 cells assessed as cell growth at 10^-4 M incubated for 48 hrs by sulforhodamine B assay relative to control; conditions: OVCAR-8, 48 h, read-out: Activity

## CCCCOc1nc2ccccc2cc1C1CNC(=O)c2ccccc2N1 (centres undefined)
NCI-H23 [1]
  growth at 0.01 µM: 95%
NCI-H460
  growth at 0.01 µM: 101%
COLO 205 [2]
  growth at 0.01 µM: 96%
HCT-116
  growth at 0.01 µM: 101%
HT-29 [3]
  growth at 0.01 µM: 94%
LOX IMVI
  growth at 0.01 µM: 95%
Hs-578T [4]
  growth at 0.01 µM: 89%
HOP-62 [5]
  growth at 0.1 µM: 98%
NCI-H522
  growth at 0.1 µM: 107%
HT-29 [6]
  growth at 0.1 µM: 98%
DU-145 [7]
  growth at 0.1 µM: 101%
MCF7 [8]
  growth at 0.1 µM: 91%
Hs-578T [9]
  growth at 0.1 µM: 97%
BT-549
  growth at 0.1 µM: 104%
RPMI-8226
  growth at 1 µM: 84%
NCI-H23 [10]
  growth at 1 µM: 91%
HCC 2998
  growth at 1 µM: 93%
SF-268
  growth at 1 µM: 80%
OVCAR-4
  growth at 1 µM: 85%
A498
  growth at 1 µM: 42%
DU-145 [11]
  growth at 1 µM: 95%
MCF7 [12]
  growth at 1 µM: 62%
T47D
  growth at 1 µM: 86%
A549
  growth at 10 µM: 14%
HOP-62 [13]
  growth at 10 µM: 19%
COLO 205 [14]
  growth at 10 µM: -43%
SW-620
  growth at 10 µM: 18%
M14
  growth at 10 µM: 4%
NCI/ADR-RES
  growth at 10 µM: -15%
HOP-92
  growth at 100 µM: -38%
SF-539
  growth at 100 µM: -70%
SK-MEL-5
  growth at 100 µM: -24%
UACC-257
  growth at 100 µM: 6%
OVCAR-8
  growth at 100 µM: -45%
